From patent US12252524B2, “GIP/GLP1 co-agonist compounds” (Eli Lilly and Company, priority 2018, dated 2025)
Numbered stars: 1 amine (or outer) side, 2 acyl side, 3 side chain; on linkers, the order of the positions; unused ones are H or OH. Square brackets hold non-standard residues; d marks the D form. Side chains are listed from the residue outwards. Peptide text beside a SMILES is read from it. * marks the point of attachment. C20 diacid = O=C(O)CCCCCCCCCCCCCCCCCCC(=O)*; C18 diacid = O=C(O)CCCCCCCCCCCCCCCCC(=O)*; αMePhe(2-F) = C[C@](N)(Cc1ccccc1F)C(=O)O; γGlu = O=C(O)[C@H](CCC(=O)[*:2])N[*:1]; αMeL = CC(C)C[C@](C)(N)C(=O)O; Orn = NCCC[C@H](N)C(=O)O; AEEA = NCCOCCOCC(=O)O; Aib = CC(C)(N)C(=O)O

Experiments:
human Gcg receptor = biological target: T1, human Gcg receptor (Homo sapiens, UniProt P47871); assay: [125I]-Glucagon binding (SPA), human Gcg receptor; conditions: read-out: hGLcgR Ki, nM (SEM, n)
T1 construct: expressed in transfected cells; crude membranes
T1 sequence (P47871 26-477): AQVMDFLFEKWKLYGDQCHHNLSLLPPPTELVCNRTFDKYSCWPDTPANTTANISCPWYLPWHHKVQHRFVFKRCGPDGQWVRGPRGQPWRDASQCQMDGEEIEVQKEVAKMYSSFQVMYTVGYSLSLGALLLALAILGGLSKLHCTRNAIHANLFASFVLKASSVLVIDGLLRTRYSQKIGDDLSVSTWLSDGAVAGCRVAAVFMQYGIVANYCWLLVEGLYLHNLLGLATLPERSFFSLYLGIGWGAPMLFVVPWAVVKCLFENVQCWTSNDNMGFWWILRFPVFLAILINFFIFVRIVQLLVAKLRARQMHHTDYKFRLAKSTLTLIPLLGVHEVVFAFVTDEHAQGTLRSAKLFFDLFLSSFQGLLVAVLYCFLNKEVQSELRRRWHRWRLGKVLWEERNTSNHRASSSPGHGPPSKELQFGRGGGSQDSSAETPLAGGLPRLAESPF
Outline: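 Scintillation counts are taken after membranes and WGA beads incubate and settle for 12 hours at room temperature. Buffer is 25 mM HEPES, pH 7.4, with CaCl2, MgCl2, bacitracin and Tween-20. Ki values, from four-parameter IC50 fits, are geometric means over independent days.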

human GLP-1R [1] = biological target: T2, human GLP-1R (Homo sapiens, UniProt P43220); assay: [125I]-GLP-1 binding (SPA), human GLP-1 receptor; set-up: expressed in transfected cells; crude membranes; conditions: read-out: hGLP1R Ki, (nM) (SEM, n)
T2 sequence (P43220 24-463): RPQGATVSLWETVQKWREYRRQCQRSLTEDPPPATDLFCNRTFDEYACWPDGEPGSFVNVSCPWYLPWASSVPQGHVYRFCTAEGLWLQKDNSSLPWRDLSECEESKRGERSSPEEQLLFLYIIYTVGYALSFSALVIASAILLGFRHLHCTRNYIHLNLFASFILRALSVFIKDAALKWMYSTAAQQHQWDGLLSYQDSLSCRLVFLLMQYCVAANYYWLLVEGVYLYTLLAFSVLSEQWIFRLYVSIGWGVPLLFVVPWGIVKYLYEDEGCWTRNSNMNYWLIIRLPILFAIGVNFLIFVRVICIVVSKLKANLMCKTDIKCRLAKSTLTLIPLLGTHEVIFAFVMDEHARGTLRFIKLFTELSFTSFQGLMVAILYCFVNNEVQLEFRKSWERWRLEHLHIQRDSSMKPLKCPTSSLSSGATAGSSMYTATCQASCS
Outline: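 Membranes: hypotonic lysis (50 mM Tris HCl, pH 7.5, protease inhibitors), Potter-Elvehjem homogenization, high-speed pellet (35000×g 1 h or 25000×g 30 min, 4° C.). Buffer: 25 mM HEPES pH 7.4, 2.5 mM CaCl2, 1 mM MgCl2. Four-parameter IC50 fit; Ki as geometric mean ± SEM.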

[2] = biological target: T3, gastric inhibitory peptide receptor (GIPR) (Homo sapiens, UniProt P48546); assay: cAMP pharmacological functional assay in presence of casein, hGIPR; format: cell-based; conditions: HEK293 cells expressing hGIPR, 0.1% Casein, geometric mean; read-out: hGIPR cAMP Rel EC50 nM (SEM, n)
T3 sequence (P48546 22-466): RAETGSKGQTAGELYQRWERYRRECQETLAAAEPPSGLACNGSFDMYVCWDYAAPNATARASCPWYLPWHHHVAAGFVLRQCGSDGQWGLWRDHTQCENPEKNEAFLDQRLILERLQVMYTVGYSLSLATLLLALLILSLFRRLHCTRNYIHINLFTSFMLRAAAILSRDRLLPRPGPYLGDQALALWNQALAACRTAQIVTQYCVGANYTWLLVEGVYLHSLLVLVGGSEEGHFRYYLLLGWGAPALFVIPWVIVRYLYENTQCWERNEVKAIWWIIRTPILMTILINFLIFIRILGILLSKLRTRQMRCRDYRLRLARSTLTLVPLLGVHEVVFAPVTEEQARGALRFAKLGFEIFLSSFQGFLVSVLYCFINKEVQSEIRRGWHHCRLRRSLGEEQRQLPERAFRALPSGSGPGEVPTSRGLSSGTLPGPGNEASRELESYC

[3] = biological target: human GLP-1 receptor (GLP-1R) (Homo sapiens, UniProt P43220); assay: cAMP pharmacological functional assay in presence of casein, hGLP-1R; format: cell-based; conditions: HEK293 cells expressing hGLP-1R, 0.1% Casein, geometric mean; read-out: hGLP1R cAMP Rel EC50 nM (SEM, n)
Chain of human GLP-1 receptor (GLP-1R) (P43220 24-463): as the sequence (P43220 24-463) above

human GIP receptor = biological target: T4, human GIP receptor (Homo sapiens, UniProt P48546); assay: [125I]-GIP binding (SPA), human GIP receptor; conditions: read-out: hGIPR Ki, nM (SEM, n)
T4 construct: expressed in transfected cells; crude membranes
T4 sequence (P48546 22-466): T3 sequence (P48546 22-466)

human GLP-1R [4] = biological target: T2, human GLP-1R; assay: GLP-1R CHO cell β-arrestin recruitment assay; format: cell-based; set-up: host or cells: CHO-K1 PathHunter cells, assay-ready frozen; conditions: for EC50: CHO-K1 cells; for hGLP1R B-Arrestin2 % Top: normalized to GLP-1 maximum control
Outline: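 PathHunter CHO-K1 cells with ProLink-tagged human GLP-1R and enzyme-acceptor-tagged β-arrestin-2 treated with serially diluted peptides in assay buffer containing 0.1% hydrolyzed casein, 90 min at 37 °C.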

human GLP-1R [5] = biological target: T2, human GLP-1R; assay: GLP-1R HEK293 cell membrane [35S]GTPγS binding assay; format: biochemical; set-up: expressed in transfected cells; host or cells: HEK293 cells expressing human GLP-1R; membranes; conditions: HEK293 cell membranes expressing human GLP-1R, [35S]GTPγS binding; read-out: hGLP1R GTPgS Rel EC50 nM (SEM, n)
Outline: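 Membranes from HEK293 cells expressing the receptor incubated with peptide and […] [35S]GTPγS in HEPES pH 7.4 buffer with NaCl, MgCl2, saponin and BSA, 30 min at room temperature. Gαs-bound label captured by anti-Gαs antibody/SPA beads and counted; EC50 from four-parameter logistic fit.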

[6] = PathHunter β-arrestin-2 recruitment, 0.1% casein, read-out: hGLP1R B-Arrestin2 Rel EC50 uM (SEM, n)

SMILES	Ki (human Gcg receptor) [nM]	Ki (human GLP-1R [1]) [nM]	EC50 [2] [nM]	EC50 [3] [nM]	Ki (human GIP receptor) [nM]	EC50 (human GLP-1R [4]; [6]) [µM]	hGLP1R B-Arrestin2 % Top (human GLP-1R [4]) [%]	EC50 (human GLP-1R [5]) [nM]	EC50 (human GLP-1R [4]; 0.1% w/v hydrolyzed Casein, read-out: hGLP1R B-Arrestin2 Rel EC50) [µM]
CC[C@H](C)[C@H](NC(=O)[C@H](CC(C)C)NC(=O)[C@H](Cc1ccc(O)cc1)NC(=O)[C@H](CCC(=O)O)NC(=O)[C@@H](NC(=O)[C@H](Cc1ccccc1)NC(=O)[C@H](C)NC(=O)C(C)(C)NC(=O)[C@H](CCC(N)=O)NC(=O)[C@H](C)NC(=O)[C@H](CCCCNC(=O)COCCOCCNC(=O)COCCOCCNC(=O)CC[C@H](NC(=O)CCCCCCCCCCCCCCCCC(=O)O)C(=O)O)NC(=O)[C@H](CCCCN)NC(=O)[C@H](CC(=O)O)NC(=O)[C@H](CC(C)C)NC(=O)[C@H](CC(C)C)NC(=O)[C@@H](NC(=O)[C@H](CO)NC(=O)[C@H](Cc1ccc(O)cc1)NC(=O)[C@H](CC(=O)O)NC(=O)[C@H](CO)NC(=O)[C@@H](NC(=O)[C@](C)(Cc1ccccc1F)NC(=O)[C@@H](NC(=O)CNC(=O)[C@H](CCC(=O)O)NC(=O)C(C)(C)NC(=O)[C@@H](N)Cc1ccc(O)cc1)[C@@H](C)O)[C@@H](C)O)[C@@H](C)CC)[C@@H](C)CC)C(=O)N[C@@H](CCC(=O)O)C(=O)NCC(=O)NCC(=O)N1CCC[C@H]1C(=O)N[C@@H](CO)C(=O)N[C@@H](CO)C(=O)NCC(N)=O [Example 302] (H-Y[Aib]EGT[αMePhe(2-F)]TSDYSILLDKK([AEEA-AEEA-γGlu-C18 diacid])AQ[Aib]AFIEYLIEGGPSSG-NH2)	18.5	0.617	0.0308	0.0275	0.0289	0.00219	98.4	0.268	–
CC[C@H](C)[C@H](NC(=O)[C@H](CC(C)C)NC(=O)[C@H](Cc1ccc(O)cc1)NC(=O)[C@@H](CCC(=O)O)NC(=O)[C@@H](NC(=O)[C@H](Cc1ccccc1)NC(=O)[C@H](CCC(=O)O)NC(=O)C(C)(C)NC(=O)[C@H](CCC(N)=O)NC(=O)[C@H](C)NC(=O)[C@H](CCCCNC(=O)COCCOCCNC(=O)COCCOCCNC(=O)CC[C@H](NC(=O)CCCCCCCCCCCCCCCCCCC(=O)O)C(=O)O)NC(=O)[C@H](CCCN)NC(=O)[C@H](CC(=O)O)NC(=O)[C@H](CC(C)C)NC(=O)[C@](C)(CC(C)C)NC(=O)[C@@H](NC(=O)[C@H](CO)NC(=O)[C@H](Cc1ccc(O)cc1)NC(=O)[C@H](CC(=O)O)NC(=O)[C@H](CO)NC(=O)[C@@H](NC(=O)[C@H](Cc1ccccc1)NC(=O)[C@@H](NC(=O)CNC(=O)[C@H](CCC(=O)O)NC(=O)C(C)(C)NC(=O)[C@H](N)Cc1ccc(O)cc1)[C@@H](C)O)[C@@H](C)O)[C@@H](C)CC)[C@@H](C)CC)C(=O)N[C@@H](C)C(=O)NCC(=O)NCC(=O)N1CCC[C@H]1C(=O)N[C@@H](CO)C(=O)N[C@@H](CO)C(=O)NCC(=O)N[C@@H](C)C(=O)N1CCC[C@H]1C(=O)N1CCC[C@H]1C(=O)N1CCC[C@H]1C(=O)N[C@@H](CO)C(N)=O [Example 354] (H-[dY][Aib]EGTFTSDYSI[αMeL]LD[Orn]K([AEEA-AEEA-γGlu-C20 diacid])AQ[Aib]EFI[dE]YLIAGGPSSGAPPPS-NH2; N-terminus assumed)	> 953	7.85	0.233	0.54	0.175	0.255	22.7	0.967	–
CC[C@H](C)[C@H](NC(=O)[C@H](CC(C)C)NC(=O)[C@H](Cc1ccc(O)cc1)NC(=O)[C@H](CCC(=O)O)NC(=O)[C@@H](NC(=O)[C@H](Cc1ccccc1)NC(=O)[C@H](C)NC(=O)C(C)(C)NC(=O)[C@H](CCC(N)=O)NC(=O)[C@H](C)NC(=O)[C@H](CCCCNC(=O)COCCOCCNC(=O)COCCOCCNC(=O)CC[C@H](NC(=O)CCCCCCCCCCCCCCCCCCC(=O)O)C(=O)O)NC(=O)[C@H](CCCCN)NC(=O)[C@H](CC(=O)O)NC(=O)[C@H](CC(C)C)NC(=O)[C@](C)(CC(C)C)NC(=O)[C@@H](NC(=O)[C@H](CO)NC(=O)[C@H](Cc1ccc(O)cc1)NC(=O)[C@H](CC(=O)O)NC(=O)[C@H](CO)NC(=O)[C@@H](NC(=O)[C@H](Cc1ccccc1)NC(=O)[C@@H](NC(=O)CNC(=O)[C@H](CCC(=O)O)NC(=O)C(C)(C)NC(=O)[C@H](N)Cc1ccc(O)cc1)[C@@H](C)O)[C@@H](C)O)[C@@H](C)CC)[C@@H](C)CC)C(=O)N[C@@H](CCC(=O)O)C(=O)NCC(=O)NCC(=O)N1CCC[C@H]1C(=O)N[C@@H](CO)C(=O)N[C@@H](CO)C(=O)NCC(=O)N[C@@H](C)C(=O)N1CCC[C@H]1C(=O)N1CCC[C@H]1C(=O)N1CCC[C@H]1C(=O)N[C@@H](CO)C(N)=O [Example 334]	192	2.17	0.0718	0.303	0.0646	> 10.3	–	0.432	> 10.3
CC[C@H](C)[C@H](NC(=O)[C@H](CC(C)C)NC(=O)[C@H](Cc1ccc(O)cc1)NC(=O)[C@H](CCC(=O)O)NC(=O)[C@@H](NC(=O)[C@H](Cc1ccccc1)NC(=O)[C@H](CCC(=O)O)NC(=O)C(C)(C)NC(=O)[C@H](CCC(N)=O)NC(=O)[C@H](C)NC(=O)[C@H](CCCCNC(=O)COCCOCCNC(=O)COCCOCCNC(=O)CC[C@H](NC(=O)CCCCCCCCCCCCCCCCCCC(=O)O)C(=O)O)NC(=O)[C@H](CCCN)NC(=O)[C@H](CC(=O)O)NC(=O)[C@H](CC(C)C)NC(=O)[C@](C)(CC(C)C)NC(=O)[C@@H](NC(=O)[C@H](CO)NC(=O)[C@H](Cc1ccc(O)cc1)NC(=O)[C@H](CC(=O)O)NC(=O)[C@H](CO)NC(=O)[C@@H](NC(=O)[C@H](Cc1ccccc1)NC(=O)[C@@H](NC(=O)CNC(=O)[C@H](CCC(=O)O)NC(=O)C(C)(C)NC(=O)[C@H](N)Cc1ccc(O)cc1)[C@@H](C)O)[C@@H](C)O)[C@@H](C)CC)C(C)C)C(=O)N[C@@H](C)C(=O)NCC(=O)NCC(=O)N1CCC[C@H]1C(=O)N[C@@H](CO)C(=O)N[C@@H](CO)C(=O)NCC(=O)N[C@@H](C)C(=O)N1CCC[C@H]1C(=O)N1CCC[C@H]1C(=O)N1CCC[C@H]1C(=O)N[C@@H](CO)C(N)=O [Example 359] (H-[dY][Aib]EGTFTSDYSI[αMeL]LD[Orn]K([AEEA-AEEA-γGlu-C20 diacid])AQ[Aib]EFVEYLIAGGPSSGAPPPS-NH2)	> 982	2.59	0.172	0.131	0.0874	0.0841	28.4	0.496	–
